This passage reports IC50 results from the Kinase Knowledgebase extract (Sharma et al. 2016).

This test has as its target EGFR (UniProt P00533).

Sequence of EGFR (P00533 whole entry, looked up): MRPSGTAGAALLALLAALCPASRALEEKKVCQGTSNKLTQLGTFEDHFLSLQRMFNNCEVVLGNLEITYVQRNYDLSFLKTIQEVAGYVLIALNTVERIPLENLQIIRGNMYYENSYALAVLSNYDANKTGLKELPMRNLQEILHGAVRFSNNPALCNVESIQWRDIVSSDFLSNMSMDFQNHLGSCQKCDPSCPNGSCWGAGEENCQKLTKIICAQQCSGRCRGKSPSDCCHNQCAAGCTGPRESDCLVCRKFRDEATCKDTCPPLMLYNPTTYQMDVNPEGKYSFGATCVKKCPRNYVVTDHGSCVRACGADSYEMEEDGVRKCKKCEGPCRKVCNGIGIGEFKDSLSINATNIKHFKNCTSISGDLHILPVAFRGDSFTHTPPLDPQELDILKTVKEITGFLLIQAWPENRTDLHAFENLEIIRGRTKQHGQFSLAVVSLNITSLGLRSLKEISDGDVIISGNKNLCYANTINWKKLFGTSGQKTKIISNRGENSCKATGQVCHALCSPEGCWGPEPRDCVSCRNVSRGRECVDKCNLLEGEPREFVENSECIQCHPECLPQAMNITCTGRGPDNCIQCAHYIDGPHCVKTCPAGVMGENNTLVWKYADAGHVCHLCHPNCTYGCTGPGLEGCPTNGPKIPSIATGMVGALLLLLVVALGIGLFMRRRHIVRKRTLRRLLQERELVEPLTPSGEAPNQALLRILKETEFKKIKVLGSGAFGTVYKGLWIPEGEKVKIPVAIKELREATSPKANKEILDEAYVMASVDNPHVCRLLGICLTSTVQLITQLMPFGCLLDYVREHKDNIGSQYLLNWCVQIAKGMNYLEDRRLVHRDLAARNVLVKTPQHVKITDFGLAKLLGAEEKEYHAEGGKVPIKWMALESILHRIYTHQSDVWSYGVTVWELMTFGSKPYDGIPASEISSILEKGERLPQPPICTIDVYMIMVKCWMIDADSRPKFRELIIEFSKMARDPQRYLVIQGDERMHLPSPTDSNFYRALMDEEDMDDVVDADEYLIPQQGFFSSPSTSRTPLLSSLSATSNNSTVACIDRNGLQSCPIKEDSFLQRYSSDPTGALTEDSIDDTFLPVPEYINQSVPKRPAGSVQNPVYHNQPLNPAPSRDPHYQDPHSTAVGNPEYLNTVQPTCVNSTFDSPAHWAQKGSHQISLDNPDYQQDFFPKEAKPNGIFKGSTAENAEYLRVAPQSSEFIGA

With `COC(=O)CCCCN1CCOC(COc2cc3ncnc(Nc4ccc(Cl)c(Cl)c4)c3cc2OC)C1` (stereo not given), the IC50 was under 50 nM. In turn, `COc1cc2c(Nc3ccc(Cl)c(Cl)c3)ncnc2cc1OCC1CN(S(C)(=O)=O)CCO1` (stereo not given) registered an IC50 of under 50 nM.

For the compound `COc1cc2c(Nc3ccc(Cl)c(Cl)c3)ncnc2cc1OCC1CN(C(=O)c2ccoc2)CCO1` (stereo not given), the IC50 was under 50 nM. For `COc1cc2c(Nc3ccc(Cl)c(Cl)c3F)ncnc2cc1OC[C@@H]1CN(C)CC(=O)N1`, the IC50 was under 50 nM. `COc1cc2c(Nc3ccc(Cl)c(Cl)c3)ncnc2cc1OCc1nc([C@@H]2CCCN2)no1` came in with an IC50 of under 50 nM. As for `COc1cc2c(Nc3ccc(Cl)c(Cl)c3)ncnc2cc1OCCC1CNC(C)(C)CO1` (stereo not given), the figure is under 50 nM. `COc1cc2c(Nc3ccc(Cl)c(Cl)c3)ncnc2cc1OCC(=O)N1CCOCC1` returned an IC50 of under 50 nM. In turn, `COc1cc2c(Nc3ccc(Cl)c(Cl)c3)ncnc2cc1OC[C@H]1CN2CCC[C@H]2CO1` registered an IC50 of under 50 nM. As for `COc1cc2c(Nc3cc(Cl)ccc3C)ncnc2cc1O[C@@H]1CO[C@@H]2[C@H]1OC[C@H]2F`, the figure is under 50 nM; as for `COc1cc2c(Nc3ccc(Cl)c(Cl)c3)ncnc2cc1OCc1nc(-c2ccc(N3CCCC3)cc2)cs1`, under 50 nM; as for `COc1cc2c(Nc3ccc(N4CCN(C)CC4)c(Cl)c3Cl)ncnc2cc1O[C@H]1CO[C@@H]2[C@H]1OC[C@@H]2F`, under 50 nM. Consider `COc1cc2c(Nc3cccc(C(F)(F)F)c3F)ncnc2cc1O[C@@H]1CO[C@@H]2[C@H]1OC[C@H]2F`, for which the IC50 is under 50 nM.

Turning to `COc1cc2c(Nc3ccc(Cl)c(Cl)c3)ncnc2cc1OCc1noc(-c2ccccc2)n1`, the IC50 is under 50 nM. In turn, `COc1cc2c(Nc3ccc(Cl)c(Cl)c3)ncnc2cc1OC1C[C@@H]2CN(C)C[C@@H]2C1` (stereo not given in full) gave an IC50 of under 50 nM. The compound `COc1cc2c(Nc3ccc(Cl)c(Cl)c3)ncnc2cc1OC[C@H]1CN2CCC[C@@H]2CO1` came in with an IC50 of under 50 nM.

Regarding `COc1cc2c(Nc3ccc(Cl)c(Cl)c3)ncnc2cc1OCC1CN(C(=NC#N)N2CCCCC2)CCO1` (stereo not given), the IC50 was under 50 nM. In turn, `COCCOc1cc2c(Nc3ccc(Cl)c(Cl)c3)ncnc2cc1OCC1CNCCO1` (stereo not given) showed an IC50 of under 50 nM. Turning to `COc1cc2c(Nc3ccc(Br)c(Cl)c3F)ncnc2cc1OC[C@H]1C[C@@H]2CN(C)C[C@@H]2C1`, the IC50 is under 50 nM.

The compound `COc1cc2c(Nc3ccc(Br)c(Cl)c3)ncnc2cc1O[C@@H]1CO[C@@H]2[C@H]1OC[C@@H]2O` gave an IC50 of under 50 nM. `COc1cc2c(Nc3ccc(Cl)c(Cl)c3)ncnc2cc1OCC1CN(CC2CC2)CCO1` (stereo not given) registered an IC50 of under 50 nM. `CCC(CC)CN1CCCOC(COc2cc3ncnc(Nc4ccc(Cl)c(Cl)c4)c3cc2OC)C1` (stereo not given) registered an IC50 of under 50 nM.

On to `CCN1CCN(c2nc(COc3cc4ncnc(Nc5ccc(Cl)c(Cl)c5)c4cc3OC)cs2)CC1`, for which the IC50 is under 50 nM. Compound `COc1cc2c(Nc3ccc(Br)c(Cl)c3)ncnc2cc1O[C@H]1CO[C@@H]2[C@H]1OC[C@@H]2OC(C)=O` gave an IC50 of under 50 nM.

Take `COc1cc2c(Nc3c(F)cc(F)cc3F)ncnc2cc1O[C@@H]1CO[C@@H]2[C@H]1OC[C@H]2F`: the IC50 is under 50 nM. The compound `CCN1CCOC(COc2cc3ncnc(Nc4ccc(Cl)c(Cl)c4)c3cc2OC)C1` (stereo not given) gave an IC50 of under 50 nM.

As to `COC(=O)CCN1CCOC(COc2cc3ncnc(Nc4ccc(Cl)c(Cl)c4)c3cc2OC)C1` (stereo not given), the IC50 was under 50 nM. Take `CC#CCN1CCOC(COc2cc3ncnc(Nc4ccc(Cl)c(Cl)c4)c3cc2OC)C1` (stereo not given): the IC50 is under 50 nM. The compound `COc1cc2c(Nc3ccc(Cl)c(Cl)c3)ncnc2cc1OCC1CN(CCC2CCCCC2)CCCO1` (stereo not given) displayed an IC50 of under 50 nM. Turning to `COc1cc2c(Nc3ccc(F)cc3F)ncnc2cc1O[C@@H]1CO[C@@H]2[C@H]1OC[C@H]2F`, the IC50 was under 50 nM. `CCS(=O)(=O)N1CCOC(COc2cc3ncnc(Nc4ccc(Cl)c(Cl)c4)c3cc2OC)C1` (stereo not given): the IC50 was under 50 nM.

Regarding `COc1cc2c(Nc3ccc(Br)cc3F)ncnc2cc1O[C@@H]1CO[C@@H]2[C@H]1OC[C@H]2F`, the IC50 is under 50 nM. For `COc1cc2c(Nc3ccc(Br)c(Cl)c3)ncnc2cc1O[C@H]1CO[C@@H]2[C@H]1OC[C@@H]2O`, the IC50 was under 50 nM. Take `COc1cc2c(Nc3ccc(Br)c(Cl)c3F)ncnc2cc1OC[C@@H]1CN2CCOC[C@H]2CO1`: the IC50 is under 50 nM. `COc1cc2c(Nc3cc(Cl)c(Cl)cc3F)ncnc2cc1OC[C@@H]1CN2CCC[C@H]2CO1` came in with an IC50 of under 50 nM.

As for `COc1cc2c(Nc3cc(F)c(Br)cc3F)ncnc2cc1OCC1CN(C)CCO1` (stereo not given), the IC50 was under 50 nM.

In turn, `COc1cc2c(Nc3ccc(Br)c(Cl)c3)ncnc2cc1O[C@H]1CO[C@@H]2[C@H]1OC[C@@H]2NC(C)=O` gave an IC50 of under 50 nM. As for `COCCNC(=NC#N)N1CCOC(COc2cc3ncnc(Nc4ccc(Cl)c(Cl)c4)c3cc2OC)C1` (stereo not given), the IC50 is under 50 nM. For the compound `COc1cc2c(Nc3ccccc3Cl)ncnc2cc1O[C@@H]1CO[C@@H]2[C@H]1OC[C@H]2F`, the IC50 is under 50 nM. In the case of `COc1cc2c(Nc3ccc(F)c(Cl)c3F)ncnc2cc1O[C@@H]1CO[C@@H]2[C@H]1OC[C@H]2F`, the IC50 was under 50 nM.

As to `COc1cc2c(Nc3ccc(N4CCN(C)CC4)c(F)c3)ncnc2cc1O[C@H]1CO[C@@H]2[C@H]1OC[C@@H]2F`, the IC50 is under 50 nM.

One may read the IC50 as the concentration that inhibits the measured activity by half. Higher therefore signals a need for much substance.
